Here are results for four compounds from patent US4764618A, “Arginine derivatives and pharmaceutically acceptable acid addition salts thereof” (Mitsubishi Chemical Industries Limited, priority 1984, dated 1988).

Each structure is given as a SMILES string.

This assay has as its target T1, trypsin (Bos taurus, UniProt P00760).
T1 sequence (P00760 24-246): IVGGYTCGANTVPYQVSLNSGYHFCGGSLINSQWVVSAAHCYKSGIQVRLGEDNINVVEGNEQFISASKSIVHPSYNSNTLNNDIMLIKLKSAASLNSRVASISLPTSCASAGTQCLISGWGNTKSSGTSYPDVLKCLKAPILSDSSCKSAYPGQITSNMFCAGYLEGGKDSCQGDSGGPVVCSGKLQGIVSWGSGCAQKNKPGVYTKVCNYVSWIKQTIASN
The assay can be described thus: Determination of Trypsin-Inhibiting Activity (chromogenic substrate S-2222). The class given is biochemical. The conditions noted are these: inhibitor concentration giving 50% of ΔA/min (405 nm) without inhibitor; 33.3 μM S-2222, 0.1 M Tris-HCl pH 8.3, 37° C.; read-out: I50. On the procedure:
Trypsin-inhibiting activity of the arginine derivatives of this invention was determined by the method described below.
Determination of Trypsin-Inhibiting Activity
Trypsin activity is determined by measuring the rate of formation of para-nitroaniline from synthesized chromogenic substrate Jz-Ile-Glu(γ-OH and γ-OCH3)-Gly-Arg-pNA (S-2222)(benzoylisoleucylglutamyl(γ-OH:γ-OCH3 =1:1)glycylarginine p-nitroanilide) supplied by Kabi Diagnostica Inc. Three (3) ml of a reaction mixture containing 33.3 μM of S-2222 and 0.1 M Tris-HCl buffer solution (pH 8.3) is placed in a cell for spectrophotometry and the cell is placed in the thermostatic cell holder at 37° C. of a Hitachi 124 spectrophotometer. After the cell is kept at 37° C. for 3 minutes, 10 μl of a solution of trypsin dissolved in 0.001N HCl containing 0.05M CaCl2 is added, and increase in absorbance at 405 nm is continuously measured using a recorder to calculate ΔA/min at an initial portion. Various inhibitors in various concentrations are added and ΔA/min values are respectively measured. Data are plotted with the inhibitor concentration as abscissa and ΔA/min as ordinate. From the resulting graph the inhibitor concentrations which give ΔA/min corresponding to 50% of the ΔA/min value when no inhibitor is added are sought as I50.
With `COc1ccc2ccc(S(=O)(=O)N[C@@H](CCCNC(=N)N)C(=O)N3CCN(c4ccccc4O)CC3)cc2c1` [compound 55], the IC50 worked out at 0.8 µM.
In the case of `COc1ccc2ccc(S(=O)(=O)N[C@@H](CCCNC(=N)N)C(=O)N3CC[C@@H](c4ccccc4)C[C@@H]3C(=O)O)cc2c1` [compound 56], the IC50 worked out at 0.15 µM.
Take `COc1ccc2ccc(S(=O)(=O)N[C@@H](CCCNC(=N)N)C(=O)N3CC[C@H](c4ccccc4)C[C@H]3C(=O)O)cc2c1` [compound 57]: the IC50 was found to be 1.9 µM.
For `COc1cccc(C2CCN(C(=O)[C@H](CCCNC(=N)N)NS(=O)(=O)c3ccc4ccc(OC)cc4c3)CC2)c1` [compound 58], the IC50 was determined as 0.75 µM.
